Measurements: patent US20090156577A1, “7-AMINO ALKYLIDENYL-HETEROCYCLIC QUINOLONES AND NAPHTHYRIDONES” (priority 2004, published 2009)
In brackets after ≈: the same amount, converted by molar mass. Structures can show the parent of a compound that is named as a salt. Where two headings read alike, the source gives them in different places.

Tested on: pathogenic bacteria
Assay: MIC by microdilution broth method (NCCLS M7-A4), in vitro antibacterial activity
Format: cell-based
In short: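 Broth microdilution per NCCLS M7-A4: two-fold serial dilutions in cation-adjusted Mueller-Hinton broth, inoculum about 5×10^4 CFU/well. Trays incubated 16–20 h at 35 °C. MIC read by comparing growth against no-compound growth controls.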

[1] = Staphylococcus aureus, Organism A: Staphylococcus aureus OC4172, read-out: MIC
[2] = Streptococcus pneumoniae, ATCC49619, Organism E: Streptococcus pneumoniae ATCC 49619, read-out: MIC
[3] = Streptococcus pneumoniae, Organism B: fluoroquinolone-resistant clinical isolate of Streptococcus pneumoniae (QRDR amino acid substitutions)
[4] = Streptococcus pneumoniae, Organism C: fluoroquinolone-resistant clinical isolate of Streptococcus pneumoniae (QRDR amino acid substitutions)
[5] = Streptococcus pneumoniae, Organism D: fluoroquinolone-resistant clinical isolate of Streptococcus pneumoniae (QRDR amino acid substitutions)
[6] = Staphylococcus aureus, Organism A: Staphylococcus aureus OC4172
[7] = Streptococcus pneumoniae, ATCC49619, Organism E: Streptococcus pneumoniae ATCC 49619

| SMILES | MIC [1] | MIC [2] | MIC [3] | MIC [4] | MIC [5] | MIC [6] | MIC [7] |
| --- | --- | --- | --- | --- | --- | --- | --- |
| CN(C)CC(F)=C1CCN(c2cc3c(cc2F)c(=O)c(C(=O)O)cn3C2CC2)CC1 [Compound 299, 1-Cyclopropyl-7-[4-(2-dimethylamino-1-fluoro-ethylidene)-piperidin-1-yl]-6-fluoro-4-oxo-1,4-dihydro-quinoline-3-carboxylic acid] | 0.5 µg/mL (≈ 1.2 µM) | 1 µg/mL (≈ 2.4 µM) | 16 µg/mL (≈ 38.3 µM) | > 16 µg/mL | 2 µg/mL (≈ 4.79 µM) |  |  |
| O=C(O)c1cn(C2CC2)c2cc(N3CCC(=C(Cl)CN4CCCCC4)CC3)c(F)cc2c1=O [Compound 300, 7-[4-(1-Chloro-2-piperidin-1-yl-ethylidene)-piperidin-1-yl]-1-cyclopropyl-6-fluoro-4-oxo-1,4-dihydro-quinoline-3-carboxylic acid] | 0.5 µg/mL (≈ 1.05 µM) | 2 µg/mL (≈ 4.22 µM) | > 16 µg/mL | > 16 µg/mL | 2 µg/mL (≈ 4.22 µM) |  |  |
| C/C(CN)=C1\CCCN(c2cc3c(cc2F)c(=O)c(C(=O)O)cn3C2CC2)C1 [Compound 301, (Z)-7-[3-(2-Amino-1-methyl-ethylidene)-piperidin-1-yl]-1-cyclopropyl-6-fluoro-4-oxo-1,4-dihydro-quinoline-3-carboxylic acid] | 0.12 µg/mL (≈ 0.311 µM) | 0.25 µg/mL (≈ 0.649 µM) | 8 µg/mL (≈ 20.8 µM) | 8 µg/mL (≈ 20.8 µM) | 8 µg/mL (≈ 20.8 µM) |  |  |
| COc1c(N2CCC/C(=C(\C)CN)C2)c(F)cc2c(=O)c(C(=O)O)cn(C3CC3)c12 [Compound 302, (Z)-7-[3-(2-Amino-1-methyl-ethylidene)-piperidin-1-yl]-1-cyclopropyl-6-fluoro-8-methoxy-4-oxo-1,4-dihydro-quinoline-3-carboxylic acid] | ≤ 0.03 µg/mL | ≤ 0.12 µg/mL | 1 µg/mL (≈ 2.41 µM) | ≤ 0.5 µg/mL | 1 µg/mL (≈ 2.41 µM) |  |  |
| COc1c(N2CCC/C(=C(\F)CN)C2)c(F)cc2c(=O)c(C(=O)O)cn(C3CC3)c12 [Compound 303, (E)-7-[3-(2-Amino-1-fluoro-ethylidene)-piperidin-1-yl]-1-cyclopropyl-6-fluoro-8-methoxy-4-oxo-1,4-dihydro-quinoline-3-carboxylic Acid Trifluoroacetic Acid Salt] | ≤ 0.015 µg/mL | 0.03 µg/mL | 0.25 µg/mL | 0.12 µg/mL | 0.25 µg/mL |  |  |
| COc1c(N2CC(=C(Cl)CO)C2)c(F)cc2c(=O)c(C(=O)O)cn(C3CC3)c12 [Compound 356, 7-[3-(1-Chloro-2-hydroxy-ethylidene)-azetidin-1-yl]-1-cyclopropyl-6-fluoro-8-methoxy-4-oxo-1,4-dihydro-quinoline-3-carboxylic Acid] | 0.06 µg/mL (≈ 0.147 µM) | 0.5 µg/mL (≈ 1.22 µM) | ≤ 4 µg/mL | > 16 µg/mL | 8 µg/mL (≈ 19.6 µM) |  |  |
| O=C(O)c1cn(C2CC2)c2nc(N3CC(=C(Cl)CO)C3)c(F)cc2c1=O [Compound 357, 7-[3-(1-Chloro-2-hydroxy-ethylidene)-azetidin-1-yl]-1-cyclopropyl-6-fluoro-4-oxo-1,4-dihydro-[1,8]naphthyridine-3-carboxylic Acid] | 0.25 µg/mL (≈ 0.658 µM) | 1 µg/mL (≈ 2.63 µM) | 8 µg/mL (≈ 21.1 µM) | 16 µg/mL (≈ 42.1 µM) | 4 µg/mL (≈ 10.5 µM) |  |  |
| NC/C(F)=C1/CCCN(c2c(F)cc3c(=O)c(C(=O)O)cn(-c4nc(N)c(F)cc4F)c3c2Cl)C1 [Compound 358, (E)-1-(6-Amino-3,5-difluoro-pyridin-2-yl)-7-[3-(2-amino-1-fluoro-ethylidene)-piperidin-1-yl]-8-chloro-6-fluoro-4-oxo-1,4-dihydro-quinoline-3-carboxylic Acid Trifluoroacetate] |  |  | 16 µg/mL | 8 µg/mL | 16 µg/mL | 0.12 µg/mL | 0.5 µg/mL |
| Nc1nc(-n2cc(C(=O)O)c(=O)c3cc(F)c(N4CCC/C(=C(/F)CO)C4)c(Cl)c32)c(F)cc1F [Compound 359, (Z)-1-(6-Amino-3,5-difluoro-pyridin-2-yl)-8-chloro-6-fluoro-7-[3-(1-fluoro-2-hydroxy-ethylidene)-piperidin-1-yl]-4-oxo-1,4-dihydroquinoline-3-carboxylic Acid Trifluoroacetate] |  |  |  | 8 µg/mL | 16 µg/mL | 0.12 µg/mL | 1 µg/mL |
| CNCC(Cl)=C1CN(c2c(F)cc3c(=O)c(C(=O)O)cn(-c4nc(N)c(F)cc4F)c3c2Cl)C1 [Compound 360, 1-(6-Amino-3,5-difluoro-pyridin-2-yl)-8-chloro-7-[3-(1-chloro-2-methylamino-ethylidene)-azetidin-1-yl]-6-fluoro-4-oxo-1,4-dihydro-quinoline-3-carboxylic Acid] | 0.06 µg/mL (≈ 0.117 µM) | 0.5 µg/mL (≈ 0.972 µM) | 16 µg/mL (≈ 31.1 µM) | 8 µg/mL (≈ 15.6 µM) | 8 µg/mL (≈ 15.6 µM) |  |  |
| Nc1nc(-n2cc(C(=O)O)c(=O)c3cc(F)c(N4CC(=C(Cl)CO)C4)c(Cl)c32)c(F)cc1F [Compound 361, 1-(6-Amino-3,5-difluoro-pyridin-2-yl)-8-chloro-7-[3-(1-chloro-2-hydroxy-ethylidene)-azetidin-1-yl]-6-fluoro-4-oxo-1,4-dihydro-quinoline-3-carboxylic acid] | ≤ 0.015 µg/mL | ≤ 0.015 µg/mL | 0.12 µg/mL (≈ 0.239 µM) | 0.12 µg/mL (≈ 0.239 µM) | 0.06 µg/mL (≈ 0.12 µM) |  |  |
| C[C@H]1COc2c(N3CC(=C(Cl)CO)C3)c(F)cc3c(=O)c(C(=O)O)cn1c23 [Compound 362, (S)-9-[3-(1-Chloro-2-hydroxy-ethylidene)-azetidin-1-yl]-8-fluoro-3-methyl-6-oxo-2,3-dihydro-6H-1-oxa-3a-aza-phenalene-5-carboxylic Acid] | 0.03 µg/mL (≈ 0.076 µM) | 0.5 µg/mL (≈ 1.27 µM) | 8 µg/mL (≈ 20.3 µM) | > 16 µg/mL | 8 µg/mL (≈ 20.3 µM) |  |  |
| COc1c(N2CC(=C(Cl)CO)C2)c(F)cc2c(=O)c(C(=O)O)cn([C@@H]3C[C@@H]3F)c12 [Compound 363, 7-[3-(1-Chloro-2-hydroxy-ethylidene)-azetidin-1-yl]-6-fluoro-(1R,2S)-1-(2-fluoro-cyclopropyl)-8-methoxy-4-oxo-1,4-dihydro-quinoline-3-carboxylic Acid] | 0.03 µg/mL (≈ 0.0703 µM) | 0.5 µg/mL (≈ 1.17 µM) | 4 µg/mL (≈ 9.37 µM) | > 16 µg/mL | 16 µg/mL (≈ 37.5 µM) |  |  |
| Cc1c(F)c(N2CC(=C(Cl)CO)C2)cc2c1c(=O)c(C(=O)O)cn2C1CC1 [Compound 364, 7-[3-(1-Chloro-2-hydroxy-ethylidene)-azetidin-1-yl]-1-cyclopropyl-6-fluoro-5-methyl-4-oxo-1,4-dihydro-quinoline-3-carboxylic Acid] | 0.06 µg/mL (≈ 0.153 µM) | 2 µg/mL (≈ 5.09 µM) | > 16 µg/mL | > 16 µg/mL | > 16 µg/mL |  |  |
| C[C@H]1COc2c(N3CC(=CCN)C3)c(F)cc3c(=O)c(C(=O)O)cn1c23 [Compound 365, (S)-9-[3-(2-Amino-ethylidene)-azetidin-1-yl]-8-fluoro-3-methyl-6-oxo-2,3-dihydro-6H-1-oxa-3a-aza-phenalene-5-carboxylic Acid] | 0.12 µg/mL (≈ 0.334 µM) | 2 µg/mL (≈ 5.57 µM) |  | > 16 µg/mL | > 16 µg/mL |  |  |
| CC(CN)=C1CN(c2c(F)cc3c(=O)c(C(=O)O)cn4c3c2OC[C@@H]4C)C1 [Compound 366, (S)-9-[3-(2-Amino-1-methyl-ethylidene)-azetidin-1-yl]-8-fluoro-3-methyl-6-oxo-2,3-dihydro-6H-1-oxa-3a-aza-phenalene-5-carboxylic Acid] | 4 µg/mL (≈ 10.7 µM) | 4 µg/mL (≈ 10.7 µM) |  | > 16 µg/mL | 8 µg/mL (≈ 21.4 µM) |  |  |
| CC(CN)=C1CN(c2cc3c(c(C)c2F)c(=O)c(C(=O)O)cn3C2CC2)C1 [Compound 367, 7-[3-(2-Amino-1-methyl-ethylidene)-azetidin-1-yl]-1-cyclopropyl-6-fluoro-5-methyl-4-oxo-1,4-dihydro-quinoline-3-carboxylic Acid] | ≤ 0.015 µg/mL | 0.12 µg/mL (≈ 0.323 µM) | 0.25 µg/mL (≈ 0.673 µM) | 1 µg/mL (≈ 2.69 µM) | 1 µg/mL (≈ 2.69 µM) |  |  |
| COc1c(N2CC(=C(C)CN)C2)c(F)cc2c(=O)c(C(=O)O)cn([C@@H]3C[C@@H]3F)c12 [Compound 368, 7-[3-(2-Amino-1-methyl-ethylidene)-azetidin-1-yl]-6-fluoro-(1R,2S)-1-(2-fluoro-cyclopropyl)-8-methoxy-4-oxo-1,4-dihydro-quinoline-3-carboxylic Acid] | 0.25 µg/mL (≈ 0.617 µM) | 1 µg/mL (≈ 2.47 µM) | 8 µg/mL (≈ 19.7 µM) | > 16 µg/mL | 8 µg/mL (≈ 19.7 µM) |  |  |
| NCC(Cl)=C1CCN(c2c(F)c(N)c3c(=O)c(C(=O)O)cn(C4CC4)c3c2F)CC1 [Compound 369, 5-Amino-7-[4-(2-amino-1-chloro-ethylidene)-piperidin-1-yl]-1-cyclopropyl-6,8-difluoro-4-oxo-1,4-dihydro-quinoline-3-carboxylic Acid] | 0.03 µg/mL (≈ 0.0684 µM) | 0.03 µg/mL (≈ 0.0684 µM) | 0.06 µg/mL (≈ 0.137 µM) | 0.5 µg/mL (≈ 1.14 µM) | 0.12 µg/mL (≈ 0.273 µM) |  |  |
| NCC(Cl)=C1CCN(c2c(F)cc3c(=O)c(C(=O)O)cn(C4CC4)c3c2OCF)CC1 [Compound 370, 7-[4-(2-Amino-1-chloro-ethylidene)-piperidin-1-yl]-1-cyclopropyl-6-fluoro-8-fluoromethoxy-4-oxo-1,4-dihydro-quinoline-3-carboxylic Acid] | 2 µg/mL (≈ 4.41 µM) | 8 µg/mL (≈ 17.6 µM) | > 16 µg/mL | > 16 µg/mL | 16 µg/mL (≈ 35.3 µM) |  |  |
| Cc1c(N2CCC(=C(Cl)CN)CC2)c(F)cc2c(=O)c(C(=O)O)cn(C3CC3)c12 [Compound 371, 7-[4-(2-Amino-1-chloro-ethylidene)-piperidin-1-yl]-1-cyclopropyl-6-fluoro-8-methyl-4-oxo-1,4-dihydro-quinoline-3-carboxylic Acid] | ≤ 0.015 µg/mL | 0.03 µg/mL (≈ 0.0714 µM) | 0.06 µg/mL (≈ 0.143 µM) | 0.12 µg/mL (≈ 0.286 µM) | 0.12 µg/mL (≈ 0.286 µM) |  |  |
| C[C@H]1COc2c(N3CCC/C(=C(/Cl)CN)CC3)c(F)cc3c(=O)c(C(=O)O)cn1c23 [Compound 372, (3S)-9-[(Z)-4-(2-Amino-1-chloro-ethylidene)-azepan-1-yl]-8-fluoro-3-methyl-6-oxo-2,3-dihydro-6H-1-oxa-3a-aza-phenalene-5-carboxylic Acid] | 0.5 µg/mL (≈ 1.15 µM) | 2 µg/mL (≈ 4.59 µM) |  | 16 µg/mL (≈ 36.7 µM) | 8 µg/mL (≈ 18.4 µM) |  |  |
